Measurements reported in article PMC5859192, “Mechanisms underlying the lack of endogenous processing and CLIP-mediated binding of the invariant chain by HLA-DP^84Gly” (Scientific Reports, 2018).
Positions count from the first letter of the chain named. pIC50: −log10 of the molar value. Where “and” joins values, the source holds several entries; their conditions need not be identical. Equal entries are not always repeated. Ends that are not written are not given here.

Tests used:
[1] = biological target: T1, DP4^84DEAV87 (substitution mutant of DPB1*04:01 with DPA1*01:03) expressed on K562 cells (Homo sapiens, UniProt P04440+P20036, G113D/G114E/M116V/P115A); assay: cell-based; format: binding
T1 construct: expressed in transfected cells; host or cells: K562 (human erythroleukemic cells without endogenous MHC class II, Ii or HLA-DM), retrovirally transduced, pMX vector
T1 sequence (P20036 29-260): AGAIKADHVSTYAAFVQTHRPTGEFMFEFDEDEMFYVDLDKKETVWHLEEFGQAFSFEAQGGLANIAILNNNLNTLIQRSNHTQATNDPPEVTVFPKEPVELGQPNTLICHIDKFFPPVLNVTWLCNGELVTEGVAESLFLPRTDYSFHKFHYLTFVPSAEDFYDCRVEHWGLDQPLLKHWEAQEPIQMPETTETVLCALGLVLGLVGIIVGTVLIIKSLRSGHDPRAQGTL
T1 sequence (P04440 30-258 G113D/G114E/P115A/M116V): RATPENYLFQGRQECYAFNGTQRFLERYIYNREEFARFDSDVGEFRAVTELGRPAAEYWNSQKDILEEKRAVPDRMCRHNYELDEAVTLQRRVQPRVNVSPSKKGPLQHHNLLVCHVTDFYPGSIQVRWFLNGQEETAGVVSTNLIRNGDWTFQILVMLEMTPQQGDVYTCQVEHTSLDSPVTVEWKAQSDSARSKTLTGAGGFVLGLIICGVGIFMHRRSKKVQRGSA

[2] = biological target: T2, HLA-DP4 (DPA1*01:03/DPB1*04:01) expressed on K562 cells (Homo sapiens, UniProt P04440+P20036); assay: cell-based; format: binding
T2 construct: expressed in transfected cells; host or cells: K562 (human erythroleukemic cells without endogenous MHC class II, Ii or HLA-DM), retrovirally transduced, pMX vector
T2 sequence (P20036 29-260): T1 sequence (P20036 29-260)
T2 sequence (P04440 30-258): T1 sequence (P04440 30-258 G113D/G114E/P115A/M116V) with D84G, E85G, A86P, V87M

| Sequence | pIC50 [1] | pIC50 [2] |
| --- | --- | --- |
| LPKPPKPVSKMRMATPLLMQALPM [CLIP] | 5.22 | 4.91 and 4.83 |
| LPKPPKPVSKMRMATPLLMQALPMGALPQ [C-extended CLIP] |  | 4.82 |
| NLRMKLPKPPKPVSKMRMATPLLMQALPM [N-extended CLIP] |  | 4.53 |
| KKLLTQHFVQENYLEY [MAGE-A3_243–258, reference compound] | 4.47 | 4.54 |
